Results: patent US20250197377A1, “NOVEL PHARMACEUTICAL SALTS AND POLYMORPHIC FORMS OF AN ERBB AND BTK INHIBITOR” (DIZAL (JIANGSU) PHARMACEUTICAL CO., LTD., priority 2021, published 2025)

Legend:
[1] = Solubility in bio-relevant media; type: physicochemical; conditions: for solubility at 24 h: salts; for pH value: solubility sample of salt
[2] = Form A and Form B inter-conversion study (competitive slurry, XRPD); type: physicochemical
Procedure: Competitive slurry experiments were conducted to evaluate the relative stability of Form A and Form B. Inter-conversion study was performed at room temperature and 50° C. using single and binary solvents listed in the Table 1 below. About 80 mg (100 mg for 50° C.) of Form A and Form B (1:1, w/w) was weighed into sample vials (8 mL) and then 3 mL (2 mL for 50° C.) of solvents were added to each vial. The obtained suspensions were kept stirring for 7 days at room temperature and 50° C., then filtered at specified time. The wet and dried solids were analyzed by XRPD (dried in vacuum oven at 45° C.).
Form B was dominant in tested solvent systems with water activity below 0.15 at room temperature (24˜27° C.). […] Pure Form A and Form B were stable during drying process (50° C., vacuum) for at least 2 days.

In the case of C=CC(=O)Nc1cc(Nc2nccc(Nc3cc(Cl)c(F)cc3C(C)(C)O)n2)c(OC)cc1N1CC[C@@H](N(C)C)C1.O=C(O)/C=C/C(=O)O [Fumaric acid salt, (R)—N-(5-((4-((5-chloro-4-fluoro-2-(2-hydroxypropan-2-yl)phenyl)amino)pyrimidin-2-yl)amino)-2-(3-(dimethylamino)pyrrolidin-1-yl)-4-methoxyphenyl)acrylamide fumarate], the solubility at 24 h ([1]; FaSSIF) is reported as > 10.1 mg/mL, the pH value ([1]; FaSSIF) is reported as 5.22 and the solubility at 24 h ([1]; FeSSIF) is reported as > 9.75 mg/mL. For the same molecule, the pH value ([1]; FeSSIF) was 4.94, the solubility at 24 h ([1]; SGF, simulated gastric fluid) was > 12.2 mg/mL and the pH value ([1]; SGF) was 3.98.
With C=CC(=O)Nc1cc(Nc2nccc(Nc3cc(Cl)c(F)cc3C(C)(C)O)n2)c(OC)cc1N1CC[C@@H](N(C)C)C1.Cl [Hydrochloric acid salt, (R)—N-(5-((4-((5-chloro-4-fluoro-2-(2-hydroxypropan-2-yl)phenyl)amino)pyrimidin-2-yl)amino)-2-(3-(dimethylamino)pyrrolidin-1-yl)-4-methoxyphenyl)acrylamide Hydrochloride] the solubility at 24 h ([1]; FaSSIF) was 1.95 mg/mL, the pH value ([1]; FaSSIF) was 6.62 and the solubility at 24 h ([1]; FeSSIF) was > 11.1 mg/mL. For the same molecule, the pH value ([1]; FeSSIF) was 5.44, the solubility at 24 h ([1]; SGF, simulated gastric fluid) was 11.8 mg/mL and the pH value ([1]; SGF) was 5.65.
In the case of C=CC(=O)Nc1cc(Nc2nccc(Nc3cc(Cl)c(F)cc3C(C)(C)O)n2)c(OC)cc1N1CC[C@@H](N(C)C)C1 [Form A and Form B (1:1, w/w), (R)-N-(5-((4-((5-chloro-4-fluoro-2-(2-hydroxypropan-2-yl)phenyl)amino)pyrimidin-2-yl)amino)-2-(3-(dimethylamino)pyrrolidin-1-yl)-4-methoxyphenyl)acrylamide], the “XRPD results of slurry” value ([2]; 1% water/acetone, 24~27° C., 1 d, after dry) is reported as “A + B”, the “XRPD results of slurry” value ([2]; 1% water/acetone, 24~27° C., 1 d, before dry) is reported as “A + B” and the “XRPD results of slurry” value ([2]; 1% water/acetone, 24~27° C., 3 d, after dry) is reported as “A + B”. For the same molecule, the “XRPD results of slurry” value ([2]; 1% water/acetone, 24~27° C., 3 d, before dry) was “A + B”, the “XRPD results of slurry” value ([2]; 1% water/acetone, 24~27° C., 7 d, before dry) was “A + B(increased)” and the “XRPD results of slurry” value ([2]; 30% water/acetone, 24~27° C., 1 d, after dry) was “A + B”. The “XRPD results of slurry” value ([2]; 30% water/acetone, 24~27° C., 1 d, before dry) was “A + B”, the “XRPD results of slurry” value ([2]; 30% water/acetone, 24~27° C., 7 d, before dry) was “A + B” and the “XRPD results of slurry” value ([2]; 30% water/acetone, 50° C., 1 d, after dry) was “A + B”. For the same molecule, the “XRPD results of slurry” value ([2]; 30% water/acetone, 50° C., 1 d, before dry) was “A + B”, the “XRPD results of slurry” value ([2]; Acetone (no water), 50° C., 1 d, before dry) was “A (minor) + B” and the “XRPD results of slurry” value ([2]; Acetone(no water), 24~27° C., 1 d, after dry) was “A + B”. For the same molecule, the “XRPD results of slurry” value ([2]; Acetone(no water), 24~27° C., 1 d, before dry) was “A + B”, the “XRPD results of slurry” value ([2]; Acetone(no water), 24~27° C., 3 d, after dry) was “A + B” and the “XRPD results of slurry” value ([2]; Acetone(no water), 24~27° C., 3 d, before dry) was “A + B”. The “XRPD results of slurry” value ([2]; Acetone(no water), 24~27° C., 7 d, before dry) was “A + B(increased)”, the “XRPD results of slurry” value ([2]; EtOH/IPA (1/1), 24~27° C., 1 d, after dry) was “A + B” and the “XRPD results of slurry” value ([2]; EtOH/IPA (1/1), 24~27° C., 1 d, before dry) was “A + B”. For the same molecule, the “XRPD results of slurry” value ([2]; EtOH/IPA (1/1), 24~27° C., 7 d, before dry) was “A + B(increased)”, the “XRPD results of slurry” value ([2]; EtOH/IPA (7/2), 24~27° C., 1 d, after dry) was “A + B” and the “XRPD results of slurry” value ([2]; EtOH/IPA (7/2), 24~27° C., 1 d, before dry) was “A + B”. The “XRPD results of slurry” value ([2]; EtOH/IPA (7/2), 24~27° C., 7 d, before dry) was “A + B(increased)”, the “XRPD results of slurry” value ([2]; EtOH/water (1/1), 24~27° C., 1 d, after dry) was “A + B” and the “XRPD results of slurry” value ([2]; EtOH/water (1/1), 24~27° C., 1 d, before dry) was “A + B”. The “XRPD results of slurry” value ([2]; EtOH/water (1/1), 24~27° C., 7 d, before dry) was “A + B”, the “XRPD results of slurry” value ([2]; Water, 24~27° C., 1 d, after dry) was “A + B” and the “XRPD results of slurry” value ([2]; Water, 24~27° C., 1 d, before dry) was “A + B”. The “XRPD results of slurry” value ([2]; Water, 24~27° C., 3 d, after dry) was “A + B”, the “XRPD results of slurry” value ([2]; Water, 24~27° C., 3 d, before dry) was “A + B” and the “XRPD results of slurry” value ([2]; Water, 24~27° C., 7 d, before dry) was “A + B”. The “XRPD results of slurry” value ([2]; Water, 50° C., 1 d, after dry) was “A + B”, the “XRPD results of slurry” value ([2]; Water, 50° C., 1 d, before dry) was “A + B” and the “XRPD results of slurry” value ([2]; Water, 50° C., 3 d, after dry) was “A + B”. For the same molecule, the “XRPD results of slurry” value ([2]; Water, 50° C., 3 d, before dry) was “A + B” and the “XRPD results of slurry” value ([2]; Water, 50° C., 7 d, before dry) was “A + B”.
